Measurements published in patent EP4324461A1, “(E)-N-CINAMOYLAMINOALKANOLES WITH MELANOGENESIS INHIBITORY ACTIVITY” (UNIWERSYTET JAGIELLONSKI, priority 2022, dated 2024).

Experiments:
[1] = tested on: Fibroblasts (BJ); test: Safety, MTT test in fibroblasts; format: cell-based; conditions: 48 hours
Procedure: (§1) In order to test the safety of the compounds, both normal human cells were used: keratinocytes (HaCaT), fibroblasts (BJ), primary melanocytes that occur in the skin, as well as human cancer cells: the hepatocarcinoma line HepG2 and the neuroblastoma line SH-SY5Y, which are considered a model for the assessment of hepatocytotoxicity and neurocytotoxicity. The concentrations of the tested compounds in the range of 250-100 µM were used in the studies. The cell lines used in the research were purchased from the American Type Culture Collection (ATCC) and were cultured in media recommended by the manufacturer with the addition of FBS and antibiotics in an incubator ensuring appropriate culture conditions, i.e. humidity, temperature and CO2 concentration. Cells were seeded into multiwell plates and incubated with the test compounds for 48 hours. After this time, MTT and LDH tests were performed to assess cell viability. The MTT test is based on the ability to transform the substrate: [3-(4,5-dimethyl-2-thiazolyl)-2,5-diphenyl-2H-tetrazolium bromide into a colored product only by living cells. The absorbance at 570 nm, which corresponds to the absorption maximum for the product, is directly proportional to cell viability. The LDH test is based on testing the activity of the enzyme lactate dehydrogenase in the culture medium, which is released from cells as a result of damage to the cell membrane, e.g. as a result of cell death. Triton X-100 was used as a positive control in the test. The determination is colorimetric, the substrate is transformed by the released enzyme into a colored product, an increase in absorbance indicates a larger amount of the released enzyme, and thus confirms greater damage to cell membranes. Tables 7 and 8 present the results obtained, which correspond to the viability of cells incubated with the compounds in relation to the viability of cells constituting a control sample, i.e. incubated with the solvent (DMSO) at the same concentration as in the case of the groups tested in the MTT test or in relation to the results obtained for the Triton X-100 positive control in the LDH test. They indicate that the compounds are safe at the concentrations tested. Table 7. Viability of tested normal human cell lines: keratinocytes (HaCaT), fibroblasts (BJ) and primary melanocytes after incubation with the tested compounds - determination in the MTT test (% of solvent control ± SD) and LDH (percentage of positive control - Triton X-100.

[2] = tested on: Hepatocarcinoma HepG2; test: Safety, LDH test in HepG2; format: cell-based; conditions: 48 hours, positive control Triton X-100
Procedure: as §1

[3] = tested on: Chinese hamster ovary cell line (CHO-K1); test: Genotoxicity in the micronucleus test in CHO-K1 cells; format: cell-based
[4] = tested on: Balb/c 3T3 murine fibroblast cell line; test: Phototoxicity in Balb/c 3T3 fibroblasts (neutral red uptake); conditions: for phototoxic potential: Balb/c 3T3, neutral red uptake; for PIF: photoirritation factor: ratio of IC50 of unirradiated to irradiated cells; for cytotoxicity towards the mouse fibroblasts: with and without exposure to UVA
Procedure: Balb/c 3T3 cells, which are an immortalized murine fibroblast cell line, were purchased at ATTC and cultured in the medium recommended by the manufacturer (DMEM GlutaMAX, newborn calf serum (BCS), antibiotics). After multiplication, cells were placed in 96-well plates, which were incubated for 24 hours, after which all wells of the plates were washed with 150 µL of balanced salt solution (HBSS). Then, after drying the plates, 100 µL of a solution of the tested compounds in HBSS with 2% FBS was added to each well and incubated for an hour. After this time, some of the plates were irradiated using the Suntest CPS+ sunlight simulator from Atlas with appropriate filters cutting off radiation with a wavelength <320 nm (UVA radiation intensity 5 J/cm^2). The second part of the plates was placed in radiation-free conditions for the same period of time. After the exposure time, the liquid was removed from all plates and the wells were washed twice with 150 µL of HBSS, then supplemented with fresh culture medium and incubated for 24 hours in an incubator (37 °C, 5% CO2). Viability was assessed in the neutral red uptake test, which is based on the ability of the dye to penetrate only into living cells. Dye uptake was confirmed by absorbance measurement at 540 nm. […] The appropriate coefficients were also calculated: mean phototoxic effect (MPE) and photoirritation factor (PIF). PIF is the ratio of the IC50 values of unirradiated to irradiated cells, while MPE is based on the comparison of concentration-response curves. […]

| Structure (SMILES) | Fibroblasts (BJ) MTT ([1]; 100 µM) | Fibroblasts (BJ) MTT ([1]; 150 µM) | Fibroblasts (BJ) MTT ([1]; 200 µM) | Fibroblasts (BJ) MTT ([1]; 250 µM) | Hepatocarcinoma HepG2 LDH ([2]; 100 µM) | Hepatocarcinoma HepG2 LDH ([2]; 150 µM) | Hepatocarcinoma HepG2 LDH ([2]; 200 µM) | Hepatocarcinoma HepG2 LDH ([2]; 250 µM) | DB (dicentric bridges in 1000 binucleate cells) ([3]; 100 µM) | MN (number of micronuclei in 1000 binucleate cells) ([3]; 100 µM) | NB (nuclear buds in 1000 binucleate cells) ([3]; 100 µM) | NDI (nuclear division index) ([3]; 100 µM) | DB (dicentric bridges in 1000 binucleate cells) ([3]; 150 µM) | MN (number of micronuclei in 1000 binucleate cells) ([3]; 150 µM) | NB (nuclear buds in 1000 binucleate cells) ([3]; 150 µM) | NDI (nuclear division index) ([3]; 150 µM) | DB (dicentric bridges in 1000 binucleate cells) ([3]; 200 µM) | MN (number of micronuclei in 1000 binucleate cells) ([3]; 200 µM) | NB (nuclear buds in 1000 binucleate cells) ([3]; 200 µM) | NDI (nuclear division index) ([3]; 200 µM) | other results |
| --- | --- | --- | --- | --- | --- | --- | --- | --- | --- | --- | --- | --- | --- | --- | --- | --- | --- | --- | --- | --- | --- |
| Cc1ccc(/C=C/C(=O)NCCCCCO)cc1 [H-415/21, (2E)-N-(5-hydroxypentyl)-3-(4-methylphenyl)prop-2-enamide] | 102.12±2.71 % of solvent control | 101.92±2.88 % of solvent control | 96.13±3.64 % of solvent control | 92.86±4.30 % of solvent control | 3.90 percentage of positive control | 7.24 percentage of positive control | 8.92 percentage of positive control | 15.47 percentage of positive control | 1.5 ± 0.7 | 12.5 ± 0.7 | 5.0 ± 1.4 | 1.54 | 3.5 ± 2.1 | 12.0 ± 2.8 | 5.5 ± 2.1 | 1.50 | 2.5 ± 0.7 | 11.5 ± 3.5 | 6.0 ± 1.4 | 1.52 |  |
| O=C(/C=C/c1ccc(Cl)cc1)NCCCCCO [Compound A-111, (2E)-3-(4-chlorophenyl)-N-(5-hydroxypentyl)prop-2-enamide] | 99.88±5.25 % of solvent control | 100.94±3.37 % of solvent control | 98.94±4.04 % of solvent control | 94.51±5.03 % of solvent control | 4.90 percentage of positive control | 4.73 percentage of positive control | 5.48 percentage of positive control | 9.75 percentage of positive control | 2.5 ± 0.7 | 4.5 ± 3.5 | 2.0 ± 2.8 | 1.60 | 4.0 ± 2.8 | 9.0 ± 5.7 | 6.0 ± 1.0 | 1.64 | 2.0 ± 2.8 | 10.0 ± 4.2 | 2.5 ± 0.7 | 1.64 | phototoxic potential [4]: do not have phototoxic potential; PIF [4]: No phototoxicity; cytotoxicity towards the mouse fibroblasts [4]: devoid of cytotoxicity |
| O=C(/C=C/c1ccc(Cl)cc1)NCCO [H-427/21, (2E)-3-(4-chlorophenyl)-N-(2-hydroxyethyl)prop-2-enamide] | 101.82±3.99 % of solvent control | 100.76±3.34 % of solvent control | 100.37±3.92 % of solvent control | 98.13±2.81 % of solvent control | 3.09 percentage of positive control | 4.45 percentage of positive control | 5.98 percentage of positive control | 13.51 percentage of positive control |  |  |  |  |  |  |  |  |  |  |  |  |  |
| O=C(/C=C/c1ccccc1)NCCCCCCO [H-425/21, (E)-N-(6-hydroxyhexyl)cinnamic acid amide] |  |  |  |  |  |  |  |  | 2.5 ± 0.7 | 11.0 ± 4.2 | 3.5 ± 0.7 | 1.56 | 2.5 ± 2.1 | 11.5 ± 0.7 | 3.5 ± 0.7 | 1.52 | 4.5 ± 3.5 | 12.5 ± 6.4 | 5.5 ± 0.7 | 1.60 |  |
| O=C(/C=C/c1ccc(Cl)cc1)NCCCO [H-330/21, (2E)-3-(4-chlorophenyl)-N-(3-hydroxypropyl)prop-2-enamide] | 100.54±5.01 % of solvent control | 94.85±3.51 % of solvent control | 85.52±3.08 % of solvent control | 76.51±1.80 % of solvent control | 5.38 percentage of positive control | 4.90 percentage of positive control | 12.16 percentage of positive control | 19.02 percentage of positive control |  |  |  |  |  |  |  |  |  |  |  |  |  |
| O=C(/C=C/c1ccccc1)NCCCCCO [Compound A-133, (2E)-N-(5-hydroxypentyl)-3-phenylprop-2-enamide] | 99.41±5.96 % of solvent control | 91.68±3.64 % of solvent control | 87.76±2.71 % of solvent control | 82.50±3.99 % of solvent control | 5.31 percentage of positive control | 7.07 percentage of positive control | 9.65 percentage of positive control | 16.13 percentage of positive control | 3.8 ± 2.8 | 7.8 ± 2.9 | 6.3 ± 3.7 | 1.64 | 3.7 ± 2.3 | 6.0 ± 1.9 | 4.5 ± 3.3 | 1.65 | 3.3 ± 1.4 | 6.8 ± 3.2 | 4.7 ± 1.8 | 1.66 | phototoxic potential [4]: do not have phototoxic potential; PIF [4]: No phototoxicity; cytotoxicity towards the mouse fibroblasts [4]: devoid of cytotoxicity |
